Reference: patent publication US9993494B2, “Compositions and methods for treating fibrotic disease” (eFFECTOR Therapeutics, Inc., priority 2014, dated 2018)

Tested on: normal human lung fibroblasts
Test: Ribosomal profiling: translational efficiency in TGFβ-treated fibroblasts
Assay type: cell-based
Conditions: TGFβ-treated fibroblasts
Procedure: Ribosomal profiling allows for measurement of changes in transcription and translation on a genome-wide basis accompanying TGFβ-dependent transformation of fibroblasts to myofibroblasts. Ribosomal profiles of the TGFβ-treated fibroblasts from Example 1 (about 6×10^6 cells/10 cm plate) were prepared and analyzed for changes in translational efficiencies with respect to potential disease-associated cellular changes accompanying this TGFβ-induced transformation.
Briefly, cells were washed with cold PBS supplemented with cycloheximide and lysed with 1× mammalian cell lysis buffer for 10 minutes on ice. Lysates were clarified by centrifugation for 10 minutes at 14,000 rpm and supernatants were collected. Cell lysates were processed to generate ribosomal protected fragments and total mRNA according to the instructions included with the ARTseq Ribosome Profiling Kit (Illumina, San Diego, Calif.). Sequencing of total RNA (RNA) and of ribosome-protected fragments of RNA (RPF) was carried out using RNA-Seq methodology according to the manufacturer's instructions (Illumina). To analyze the ribosomal profiles, RNA-Seq reads were processed with tools from the FASTX-Toolkit (fastq_quality_trimmer, fastx_clipper and fastx_trimmer). Unprocessed and processed reads were evaluated for a variety of quality measures using FastQC, and processed reads were mapped to the human genome using TopHat (see, e.g., Trapnell et al., Bioinformatics 25:1105, 2009). Gene-by-gene assessment of the number of fragments strictly and uniquely mapping to the coding region of each gene was conducted using HTSeq-count, a component of the HTSeq package. […] Genes with low counts in either RPF or RNA were excluded from differential analyses. Pathway and network analyses of differential data were conducted using Ingenuity Pathway Analysis (IPA).

COC(=O)[C@H]1[C@@H](O)[C@@]2(O)c3c(OC)cc(O[C@@H]4O[C@@H]([C@H](O)CO)CO[C@H]4OC)cc3O[C@@]2(c2ccc(OC)cc2)[C@@H]1c1ccccc1 [Silvestrol]
+++ (+++ = >2.0): renormalizing the translational profile of RASD1 (ENSG00000108551) | renormalizing the translational profile of CIT (ENSG00000122966) | renormalizing the translational profile of PPARG (ENSG00000132170)
− (− = <0.9): renormalizing the translational profile of KITLG (ENSG00000049130) | renormalizing the translational profile of ADAMTS6 (ENSG00000049192) | renormalizing the translational profile of LETMD1 (ENSG00000050426) | renormalizing the translational profile of EIF4B (ENSG00000063046) | renormalizing the translational profile of RPL18 (ENSG00000063177) | renormalizing the translational profile of HIPK2 (ENSG00000064393) | renormalizing the translational profile of RASSF1 (ENSG00000068028) | renormalizing the translational profile of PABPC1 (ENSG00000070756) | renormalizing the translational profile of RPL31 (ENSG00000071082) | renormalizing the translational profile of AURKA (ENSG00000087586) | renormalizing the translational profile of RPL6 (ENSG00000089009) | renormalizing the translational profile of P2RX7 (ENSG00000089041) | renormalizing the translational profile of KDM2B (ENSG00000089094) | renormalizing the translational profile of RPLP0 (ENSG00000089157) | renormalizing the translational profile of IGBP1 (ENSG00000089289) | renormalizing the translational profile of FMO2 (ENSG00000094963) | renormalizing the translational profile of ACOT7 (ENSG00000097021) | renormalizing the translational profile of ATP5D (ENSG00000099624) | renormalizing the translational profile of LGALS1 (ENSG00000100097) | renormalizing the translational profile of EIF3L (ENSG00000100129) | renormalizing the translational profile of RPL3 (ENSG00000100316) | renormalizing the translational profile of AMMECR1 (ENSG00000101935) | renormalizing the translational profile of PLP2 (ENSG00000102007) | renormalizing the translational profile of EIF3E (ENSG00000104408) | renormalizing the translational profile of EEF1D (ENSG00000104529) | renormalizing the translational profile of C19orf53 (ENSG00000104979) | renormalizing the translational profile of GLTSCR2 (ENSG00000105373) | renormalizing the translational profile of RAB3D (ENSG00000105514) | renormalizing the translational profile of RPL18A (ENSG00000105640) | renormalizing the translational profile of COMP (ENSG00000105664) | renormalizing the translational profile of GDF10 (ENSG00000107623) | renormalizing the translational profile of RPL28 (ENSG00000108107) | renormalizing the translational profile of RPL19 (ENSG00000108298) | renormalizing the translational profile of NAT9 (ENSG00000109065) | renormalizing the translational profile of RPL34 (ENSG00000109475) | renormalizing the translational profile of CRYAB (ENSG00000109846) | renormalizing the translational profile of GAPDH (ENSG00000111640) | renormalizing the translational profile of C12orf57 (ENSG00000111678) | renormalizing the translational profile of MDFI (ENSG00000112559) | renormalizing the translational profile of RPL24 (ENSG00000114391) | renormalizing the translational profile of EEF1B2 (ENSG00000114942) | renormalizing the translational profile of IFIH1 (ENSG00000115267) | renormalizing the translational profile of DPH5 (ENSG00000117543) | renormalizing the translational profile of PPL (ENSG00000118898) | renormalizing the translational profile of PLEKHG1 (ENSG00000120278) | renormalizing the translational profile of LIAS (ENSG00000121897) | renormalizing the translational profile of GPSM2 (ENSG00000121957) | renormalizing the translational profile of RPL21 (ENSG00000122026) | renormalizing the translational profile of RPL5 (ENSG00000122406) | renormalizing the translational profile of RPL23 (ENSG00000125691) | renormalizing the translational profile of LAMP5 (ENSG00000125869) | renormalizing the translational profile of NECAB3 (ENSG00000125967) | renormalizing the translational profile of COX7C (ENSG00000127184) | renormalizing the translational profile of LIF (ENSG00000128342) | renormalizing the translational profile of MTUS1 (ENSG00000129422) | renormalizing the translational profile of ARHGEF6 (ENSG00000129675) | renormalizing the translational profile of RPL36 (ENSG00000130255) | renormalizing the translational profile of GDF15 (ENSG00000130513) | renormalizing the translational profile of ASS1 (ENSG00000130707) | renormalizing the translational profile of EIF2S3 (ENSG00000130741) | renormalizing the translational profile of RPL27 (ENSG00000131469) | renormalizing the translational profile of RARRES3 (ENSG00000133321) | renormalizing the translational profile of BIVM (ENSG00000134897) | renormalizing the translational profile of ATP5G2 (ENSG00000135390) | renormalizing the translational profile of KRT7 (ENSG00000135480) | renormalizing the translational profile of HNRNPA1 (ENSG00000135486) | renormalizing the translational profile of IL6 (ENSG00000136244) | renormalizing the translational profile of RPL35 (ENSG00000136942) | renormalizing the translational profile of NOV (ENSG00000136999) | renormalizing the translational profile of IER3 (ENSG00000137331) | renormalizing the translational profile of RPLP1 (ENSG00000137818) | renormalizing the translational profile of PAQR5 (ENSG00000137819) | renormalizing the translational profile of AOX1 (ENSG00000138356) | renormalizing the translational profile of FGF5 (ENSG00000138675) | renormalizing the translational profile of PDE5A (ENSG00000138735) | renormalizing the translational profile of DIAPH3 (ENSG00000139734) | renormalizing the translational profile of RPL13A (ENSG00000142541) | renormalizing the translational profile of RPL11 (ENSG00000142676) | renormalizing the translational profile of PLEKHA6 (ENSG00000143850) | renormalizing the translational profile of RPL32 (ENSG00000144713) | renormalizing the translational profile of RPL37 (ENSG00000145592) | renormalizing the translational profile of BTF3 (ENSG00000145741) | renormalizing the translational profile of HIGD2A (ENSG00000146066) | renormalizing the translational profile of CREB5 (ENSG00000146592) | renormalizing the translational profile of DENND2A (ENSG00000146966) | renormalizing the translational profile of RPL10 (ENSG00000147403) | renormalizing the translational profile of EIF3H (ENSG00000147677) | renormalizing the translational profile of RPL7A (ENSG00000148303) | renormalizing the translational profile of EIF3M (ENSG00000149100) | renormalizing the translational profile of FAU (ENSG00000149806) | renormalizing the translational profile of CCDC102B (ENSG00000150636) | renormalizing the translational profile of FRMD4A (ENSG00000151474) | renormalizing the translational profile of PLEKHH2 (ENSG00000152527) | renormalizing the translational profile of OBSCN (ENSG00000154358) | renormalizing the translational profile of OXA1L (ENSG00000155463) | renormalizing the translational profile of C9orf85 (ENSG00000155621) | renormalizing the translational profile of RPL30 (ENSG00000156482) | renormalizing the translational profile of EEF1A1 (ENSG00000156508) | renormalizing the translational profile of RPL8 (ENSG00000161016) | renormalizing the translational profile of RPL26 (ENSG00000161970) | renormalizing the translational profile of RPL29 (ENSG00000162244) | renormalizing the translational profile of CAMK2N1 (ENSG00000162545) | renormalizing the translational profile of IGFBP7 (ENSG00000163453) | renormalizing the translational profile of RPL22L1 (ENSG00000163584)
+ (+ = 0.9 to 1.5): renormalizing the translational profile of DNASE1L1 (ENSG00000013563) | renormalizing the translational profile of ASPM (ENSG00000066279) | renormalizing the translational profile of EPB41L1 (ENSG00000088367) | renormalizing the translational profile of IRAK3 (ENSG00000090376) | renormalizing the translational profile of PABPC4 (ENSG00000090621) | renormalizing the translational profile of CEP192 (ENSG00000101639) | renormalizing the translational profile of GLCCI1 (ENSG00000106415) | renormalizing the translational profile of HBEGF (ENSG00000113070) | renormalizing the translational profile of INHBA (ENSG00000122641) | renormalizing the translational profile of MATN3 (ENSG00000132031) | renormalizing the translational profile of KDM6B (ENSG00000132510) | renormalizing the translational profile of DDX60 (ENSG00000137628) | renormalizing the translational profile of GAS2L3 (ENSG00000139354) | renormalizing the translational profile of MYO19 (ENSG00000141140) | renormalizing the translational profile of HOMER1 (ENSG00000152413) | renormalizing the translational profile of ANKH (ENSG00000154122) | renormalizing the translational profile of ADAMTS5 (ENSG00000154736) | renormalizing the translational profile of NRG1 (ENSG00000157168)
++ (++ = 1.5 to 2.0): renormalizing the translational profile of PLEKHA5 (ENSG00000052126) | renormalizing the translational profile of PLD1 (ENSG00000075651) | renormalizing the translational profile of EDN1 (ENSG00000078401) | renormalizing the translational profile of ABCA6 (ENSG00000154262)
